Laboratory results reported in ChEMBL document CHEMBL1201862, “PubChem BioAssay data set” (2004).
Active and inactive are the calls of the source.

Tests used:
[1] = target: Glucose-6-phosphate 1-dehydrogenase (Homo sapiens, UniProt P11413); assay: inhibition of Homo sapiens G6PD, dose series – biochemical, fluorescence, selectivity assay for P. falciparum G6PD inhibitor project, dose response (AID 504792); assay type: functional
HEK293 = assay: EBV LMP1 TES2 canonical NF-kB signalling blockers – cell-based, HEK293, luciferase, cherry-pick, dose response (AID 588343); assay type: functional; details: Homo sapiens
[2] = target: Glyceraldehyde-3-phosphate dehydrogenase (Homo sapiens, UniProt P04406)
[3] = target: T1, Alkaline phosphatase, tissue-nonspecific isozyme (Homo sapiens, UniProt P05186); assay: potency against alkaline phosphatase TNAP – biochemical, luminescent, dose response, SAR follow-up (AID 1056)
T1 sequence (P05186 whole entry): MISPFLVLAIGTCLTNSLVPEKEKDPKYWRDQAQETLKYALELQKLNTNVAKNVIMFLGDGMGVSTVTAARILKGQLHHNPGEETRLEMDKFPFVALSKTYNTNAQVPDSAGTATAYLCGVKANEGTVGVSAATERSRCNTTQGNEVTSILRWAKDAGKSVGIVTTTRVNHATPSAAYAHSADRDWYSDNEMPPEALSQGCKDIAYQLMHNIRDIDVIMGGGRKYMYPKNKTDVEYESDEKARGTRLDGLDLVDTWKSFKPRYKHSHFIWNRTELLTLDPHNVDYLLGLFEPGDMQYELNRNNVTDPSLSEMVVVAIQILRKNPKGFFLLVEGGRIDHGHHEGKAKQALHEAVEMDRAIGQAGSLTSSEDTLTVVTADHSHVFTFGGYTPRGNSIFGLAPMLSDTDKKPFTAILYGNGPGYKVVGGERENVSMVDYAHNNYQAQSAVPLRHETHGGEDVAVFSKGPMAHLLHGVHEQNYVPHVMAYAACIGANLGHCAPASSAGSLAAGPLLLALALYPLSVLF

[4] = NIH3T3 cell viability loss – ATP luminescence, mouse fibroblasts, counter-screen, dose response (AID 2010); assay type: functional, cell-based;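 further: cells exposed to compound for about 90 hours before reading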
[5] = target: Eukaryotic translation initiation factor 4E (Mus musculus, UniProt P63073); assay: blockers of eIF4G binding by eIF4E – biochemical, TR-FRET, dose response (AID 855); assay type: functional;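 further: potency for disrupting eIF4E binding to eIF4GI seen as loss of FRET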
Genome polyprotein = Genome polyprotein (dengue virus type 2, UniProt P29990); assay: flavivirus cap methylation enzyme inhibition – biochemical, confirmation dose response, primary screen (AID 588689); assay type: functional
[6] = Trypanosoma cruzi growth suppression in host cells – NIH3T3 host cells, beta-gal luminescence, confirmation (AID 2044); assay type: functional, cell-based;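 further: intracellular parasites grown in NIH/3T3 mouse fibroblasts as host cells; luminescent beta-galactosidase reporter signal from transgenic T. cruzi replicating inside host cells; inhibitors lower the luminescence signal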
[7] = target: T2, Mannose-6-phosphate isomerase (Homo sapiens, UniProt P34949); assay: MPI inhibition at elevated mannose 6-phosphate – biochemical, fluorescence intensity, high mannose 6-phosphate, primary screen (AID 1220)
T2 sequence (P34949 whole entry): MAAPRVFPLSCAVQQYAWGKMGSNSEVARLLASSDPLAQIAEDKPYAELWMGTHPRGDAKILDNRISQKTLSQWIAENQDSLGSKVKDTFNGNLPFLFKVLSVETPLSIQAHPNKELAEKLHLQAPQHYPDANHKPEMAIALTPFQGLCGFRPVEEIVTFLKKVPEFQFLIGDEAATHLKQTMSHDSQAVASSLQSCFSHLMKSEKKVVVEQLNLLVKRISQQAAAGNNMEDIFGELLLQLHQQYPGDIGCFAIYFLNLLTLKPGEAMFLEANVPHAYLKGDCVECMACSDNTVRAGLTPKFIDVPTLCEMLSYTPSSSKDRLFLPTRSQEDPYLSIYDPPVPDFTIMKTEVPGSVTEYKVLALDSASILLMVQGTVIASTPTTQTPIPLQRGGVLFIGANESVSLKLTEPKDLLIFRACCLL

[8] = target: T3, Endoribonuclease toxin MazF (Escherichia coli K-12, UniProt P0AE70); assay: activation of MazEF endoribonuclease cleavage – biochemical, fluorescence, single-stranded RNA substrate, uHTS hits, dose response (AID 588481); assay type: functional
T3 sequence (P0AE70 whole entry): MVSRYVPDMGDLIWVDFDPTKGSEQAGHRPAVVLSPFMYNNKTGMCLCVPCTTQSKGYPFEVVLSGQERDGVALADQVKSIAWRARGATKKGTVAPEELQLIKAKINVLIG

[9] = target: T3, Endoribonuclease toxin MazF; assay: substrate-only fluorescence increase artefacts – biochemical, single-stranded RNase substrate, counter-screen for MazEF activator project, dose response (AID 588502); assay type: functional
[10] = target: T4, DNA repair protein RAD52 homolog (Homo sapiens, UniProt P43351); assay type: functional, biochemical
T4 sequence (P43351 whole entry): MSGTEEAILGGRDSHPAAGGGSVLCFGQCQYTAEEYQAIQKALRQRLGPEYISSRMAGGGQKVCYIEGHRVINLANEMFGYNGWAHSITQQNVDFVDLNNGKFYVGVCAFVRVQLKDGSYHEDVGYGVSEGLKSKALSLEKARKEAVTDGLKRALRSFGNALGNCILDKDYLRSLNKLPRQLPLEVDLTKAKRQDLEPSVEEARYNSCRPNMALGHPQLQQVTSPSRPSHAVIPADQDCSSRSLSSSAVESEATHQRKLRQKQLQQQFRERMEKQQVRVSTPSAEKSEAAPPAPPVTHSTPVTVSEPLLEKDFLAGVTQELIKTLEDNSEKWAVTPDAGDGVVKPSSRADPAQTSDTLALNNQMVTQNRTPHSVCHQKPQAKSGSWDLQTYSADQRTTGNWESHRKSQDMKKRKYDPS

[11] = target: DNA dC->dU-editing enzyme APOBEC-3G (Homo sapiens, UniProt Q9HC16); assay type: functional;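 further: Dose-response counterscreen measuring inhibition of APOBEC3G DNA deaminase activity, run while confirming APOBEC3A inhibitors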
[12] = target: DNA dC->dU-editing enzyme APOBEC-3A (Homo sapiens, UniProt P31941); assay: Dose Response confirmation of small molecule APOBEC3A DNA Deaminase Inhibitors via a fluorescence-based single-stranded DNA deaminase assay. [Related pubchem assays (depositor defined):AID493011, AID493024]; assay type: functional
[13] = A Cell Based Secondary Assay To Explore Cytotoxicity of Compounds that Sensitize Mycobacterium Tuberculosis to Beta-Lactam Antibiotics.; assay type: functional
INS1 = assay: INS-1E survival protection against cytokine death – cell-based, luminescence, retest, dose response (AID 449756); assay type: functional; details: Rattus norvegicus;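 further: cell death triggered by IL-1 beta plus TNF-alpha plus IFN-gamma mixture; protective hits raise ATP signal compared with cytokine alone wells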
[14] = Luminescence Cell-Based Dose Response HTS to Identify Inhibitors of 5'UTR Stem-Loop Driven Prion Protein mRNA Translation in H4 Neuroglioblastoma Cells. [Related pubchem assays: 1827 (Project Summary), 1813 (Primary HTS)]; assay type: functional
[15] = luciferase reporter signal suppression in cells – H4 neuroglioma cells, luminescence, dose response (AID 1990); assay type: functional, cell-based
[16] = alpha-synuclein stem-loop luciferase translation blockers – H4 neuroglioma cells, luminescence, confirmation (AID 1988); assay type: functional, cell-based
[17] = target: T5, Heat shock factor protein 1 (Mus musculus, UniProt P38532); assay: decrease of HSF1-responsive luciferase luminescence – cell-based, NIH3T3, dose retest, confirmation (AID 2382); assay type: functional;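 further: NIH3T3 fibroblasts with HSF1-driven luciferase reporter stressed by proteasome inhibitor MG132; luminescence from HSF1-driven luciferase expression after 8 hours of MG132 stress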
T5 sequence (P38532 whole entry): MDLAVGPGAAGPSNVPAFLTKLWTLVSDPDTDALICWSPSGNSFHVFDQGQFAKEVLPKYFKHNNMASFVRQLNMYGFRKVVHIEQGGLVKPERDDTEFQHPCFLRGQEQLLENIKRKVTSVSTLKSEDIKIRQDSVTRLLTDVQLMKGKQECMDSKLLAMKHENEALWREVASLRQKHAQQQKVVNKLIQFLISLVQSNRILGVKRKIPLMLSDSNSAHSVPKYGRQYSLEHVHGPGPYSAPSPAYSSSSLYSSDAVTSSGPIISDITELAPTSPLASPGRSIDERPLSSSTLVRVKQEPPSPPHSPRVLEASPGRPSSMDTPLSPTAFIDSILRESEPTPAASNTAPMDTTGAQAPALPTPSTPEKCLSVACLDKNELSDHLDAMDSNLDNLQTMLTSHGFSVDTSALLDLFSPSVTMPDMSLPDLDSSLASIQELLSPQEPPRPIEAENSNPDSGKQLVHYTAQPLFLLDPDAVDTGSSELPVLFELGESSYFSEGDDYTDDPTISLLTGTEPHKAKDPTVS

[18] = target: T6, Rac GTPase-activating protein 1 (Homo sapiens, UniProt Q9H0H5); assay: blockers of MgcRacGAP-driven Rac1 GTP hydrolysis – biochemical, ADP Hunter fluorescence, primary and confirmatory, confirmation (AID 624330); assay type: functional
T6 sequence (Q9H0H5 whole entry): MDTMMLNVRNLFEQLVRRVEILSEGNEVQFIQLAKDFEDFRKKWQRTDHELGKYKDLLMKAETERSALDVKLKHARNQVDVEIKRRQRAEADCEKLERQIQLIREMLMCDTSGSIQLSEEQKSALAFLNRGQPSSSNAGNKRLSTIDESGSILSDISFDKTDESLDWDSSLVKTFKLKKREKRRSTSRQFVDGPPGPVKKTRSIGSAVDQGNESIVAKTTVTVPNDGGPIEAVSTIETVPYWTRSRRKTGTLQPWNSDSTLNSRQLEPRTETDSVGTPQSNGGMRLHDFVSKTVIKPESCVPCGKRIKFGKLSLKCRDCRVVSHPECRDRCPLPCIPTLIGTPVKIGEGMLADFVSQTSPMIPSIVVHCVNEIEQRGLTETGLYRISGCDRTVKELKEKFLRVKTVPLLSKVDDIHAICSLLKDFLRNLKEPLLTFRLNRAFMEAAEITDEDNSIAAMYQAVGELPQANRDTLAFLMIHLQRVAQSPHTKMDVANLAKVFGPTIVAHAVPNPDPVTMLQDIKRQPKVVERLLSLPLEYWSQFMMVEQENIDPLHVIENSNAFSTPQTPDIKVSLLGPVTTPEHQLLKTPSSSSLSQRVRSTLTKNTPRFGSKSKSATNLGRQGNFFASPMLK

Chain of Glucose-6-phosphate 1-dehydrogenase (P11413 whole entry): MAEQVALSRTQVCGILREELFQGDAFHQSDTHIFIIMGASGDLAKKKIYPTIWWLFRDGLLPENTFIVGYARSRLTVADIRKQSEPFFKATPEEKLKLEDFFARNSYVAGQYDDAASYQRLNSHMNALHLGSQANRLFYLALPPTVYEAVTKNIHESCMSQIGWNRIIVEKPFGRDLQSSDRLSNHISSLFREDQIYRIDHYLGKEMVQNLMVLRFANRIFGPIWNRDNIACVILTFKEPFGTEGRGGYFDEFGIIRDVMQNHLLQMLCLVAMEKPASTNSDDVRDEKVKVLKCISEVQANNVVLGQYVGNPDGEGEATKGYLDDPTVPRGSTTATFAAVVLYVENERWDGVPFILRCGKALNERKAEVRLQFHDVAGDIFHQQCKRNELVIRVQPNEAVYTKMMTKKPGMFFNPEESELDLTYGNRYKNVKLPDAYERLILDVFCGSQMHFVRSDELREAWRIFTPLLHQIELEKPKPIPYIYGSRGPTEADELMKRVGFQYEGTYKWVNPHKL
Chain of Glyceraldehyde-3-phosphate dehydrogenase (P04406 whole entry): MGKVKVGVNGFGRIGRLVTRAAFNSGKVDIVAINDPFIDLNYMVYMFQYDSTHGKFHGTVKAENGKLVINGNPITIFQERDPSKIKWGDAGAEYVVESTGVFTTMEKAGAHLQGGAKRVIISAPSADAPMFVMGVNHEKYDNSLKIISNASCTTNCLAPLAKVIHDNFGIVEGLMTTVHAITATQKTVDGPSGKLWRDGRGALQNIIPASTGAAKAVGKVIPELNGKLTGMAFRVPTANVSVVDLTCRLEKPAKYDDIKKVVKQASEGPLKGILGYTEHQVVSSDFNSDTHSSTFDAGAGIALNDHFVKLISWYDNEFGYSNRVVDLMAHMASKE
Chain of Eukaryotic translation initiation factor 4E (P63073 whole entry): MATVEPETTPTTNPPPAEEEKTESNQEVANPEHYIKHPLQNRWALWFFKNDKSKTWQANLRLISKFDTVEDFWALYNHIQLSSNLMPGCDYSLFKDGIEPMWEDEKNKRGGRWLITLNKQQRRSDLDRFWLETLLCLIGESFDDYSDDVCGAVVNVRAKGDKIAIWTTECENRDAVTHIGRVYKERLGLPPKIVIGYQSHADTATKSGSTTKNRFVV
Chain of DNA dC->dU-editing enzyme APOBEC-3G (Q9HC16 whole entry): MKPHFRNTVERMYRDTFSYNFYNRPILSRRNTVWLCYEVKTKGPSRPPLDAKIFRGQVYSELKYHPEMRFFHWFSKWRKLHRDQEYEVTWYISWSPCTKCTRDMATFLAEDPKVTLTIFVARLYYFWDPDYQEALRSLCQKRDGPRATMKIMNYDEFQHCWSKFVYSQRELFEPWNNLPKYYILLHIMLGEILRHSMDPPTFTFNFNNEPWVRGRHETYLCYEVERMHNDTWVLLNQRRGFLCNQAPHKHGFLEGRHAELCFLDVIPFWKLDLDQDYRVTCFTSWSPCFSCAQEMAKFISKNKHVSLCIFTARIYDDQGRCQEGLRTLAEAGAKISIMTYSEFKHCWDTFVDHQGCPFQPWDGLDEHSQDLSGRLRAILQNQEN
Chain of Genome polyprotein (P29990 2492-3391 limits assumed): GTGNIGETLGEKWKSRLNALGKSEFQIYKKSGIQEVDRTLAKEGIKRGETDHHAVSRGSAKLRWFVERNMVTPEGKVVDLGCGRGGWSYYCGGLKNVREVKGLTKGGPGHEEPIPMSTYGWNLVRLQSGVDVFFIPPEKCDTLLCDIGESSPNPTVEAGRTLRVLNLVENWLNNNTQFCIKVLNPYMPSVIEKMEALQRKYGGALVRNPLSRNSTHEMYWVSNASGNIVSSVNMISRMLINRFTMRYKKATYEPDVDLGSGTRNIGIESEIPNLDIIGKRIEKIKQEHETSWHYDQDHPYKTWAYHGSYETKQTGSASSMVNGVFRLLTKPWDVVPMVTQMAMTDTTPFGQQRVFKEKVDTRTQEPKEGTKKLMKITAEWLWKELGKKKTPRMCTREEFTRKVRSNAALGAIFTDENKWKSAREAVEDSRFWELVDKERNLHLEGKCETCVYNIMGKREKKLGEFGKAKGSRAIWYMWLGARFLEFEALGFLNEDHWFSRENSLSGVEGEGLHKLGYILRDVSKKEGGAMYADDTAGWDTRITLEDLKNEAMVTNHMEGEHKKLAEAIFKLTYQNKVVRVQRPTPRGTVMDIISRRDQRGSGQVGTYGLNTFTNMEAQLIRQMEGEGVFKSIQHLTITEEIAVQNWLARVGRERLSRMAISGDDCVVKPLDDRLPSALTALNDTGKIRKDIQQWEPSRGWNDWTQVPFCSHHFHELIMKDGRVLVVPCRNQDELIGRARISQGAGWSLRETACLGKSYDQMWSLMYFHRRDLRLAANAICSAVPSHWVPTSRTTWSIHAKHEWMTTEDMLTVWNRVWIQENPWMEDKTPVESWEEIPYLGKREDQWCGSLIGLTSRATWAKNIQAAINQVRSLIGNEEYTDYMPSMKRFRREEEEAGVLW
Chain of DNA dC->dU-editing enzyme APOBEC-3A (P31941 whole entry): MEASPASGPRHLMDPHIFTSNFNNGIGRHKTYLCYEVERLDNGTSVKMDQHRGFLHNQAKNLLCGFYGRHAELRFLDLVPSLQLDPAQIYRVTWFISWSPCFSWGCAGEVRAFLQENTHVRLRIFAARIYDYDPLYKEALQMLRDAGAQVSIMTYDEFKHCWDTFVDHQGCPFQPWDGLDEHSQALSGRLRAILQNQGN

## Cc1nnc(N/N=C\c2ccc(-c3cccc(C(=O)O)c3)o2)n1N
[1]
  IC50: 66.8 µM (inactive)

## COC(=O)c1ccccc1/N=C/C1=C(O)c2c(C)nn(-c3ccccn3)c2CC1
[1]
  IC50: > 80 µM (inactive)

## Cc1ccccc1C(=O)N1CCN(c2ccc(NC(=O)c3ccco3)cc2Cl)CC1
HEK293
  AC50: 2.45 µM (active)

## O=C1c2ccccc2C(=O)C1c1nc2ccccc2[nH]1
[2]
  IC50: > 100 µM (not active)
[3]
  IC50: > 100 µM (inactive)

## Fc1cccc(Cl)c1CNc1ccc(N2CCCC2)cc1
[4]
  EC50: > 60 µM (not active)
[1]
  IC50: > 80 µM (inactive)
[5]
  IC50: 50 µM (inactive)
Genome polyprotein
  IC50: 35.6 µM (active)
[6]
  EC50: 2.52 µM (active)
[7]
  IC50: 30.5 µM (active)

## COC(=O)c1nn2c(C(F)(F)F)cc(-c3ccc(Br)o3)nc2c1Br
[8]
  EC50: > 99 µM (inactive)
[9]
  EC50: 30.5 µM (inactive)

## COc1ccccc1N1C(=O)S/C(=C\c2cc(C)n(C)c2C)C1=O
[8]
  EC50: > 99 µM (inactive)
[9]
  EC50: 30.6 µM (inactive)

## Cn1ccnc1Sc1nc(Nc2ccccc2)nc(Nc2ccccc2)n1
[2]
  IC50: > 100 µM (not active)
[3]
  IC50: > 100 µM (inactive)

## CC(C)(C)c1ccc(S(=O)(=O)Nc2cnc3ccccc3c2)cc1
[2]
  IC50: > 100 µM (not active)
[3]
  IC50: > 100 µM (inactive)

## C=CCn1c(=O)/c(=C\c2ccccn2)s/c1=C(/C#N)C(=O)NCC1CCCO1 (stereo not given)
[8]
  EC50: > 99 µM (inactive)
[9]
  EC50: > 99 µM (inactive)

## O=C1Nc2cc(C(=O)NCCCN3CCCC3)ccc2S/C1=C/c1cccc(Cl)c1
[1]
  IC50: > 80 µM (inactive)
[10]
  AC50: 7.29 µM (active)

## O=C1C2CC=C(Cl)CC2C(=O)N1c1nnc[nH]1 (stereo not given)
[2]
  IC50: > 100 µM (not active)
[3]
  IC50: > 100 µM (inactive)

## COc1ccc(OC)c(NS(=O)(=O)c2cnc3ccccc3c2)c1
[2]
  IC50: > 10 µM (inconclusive)
[3]
  IC50: > 10 µM (inactive)

## CCc1c(C#N)c(S)nc(C)c1C(=O)Nc1ccccc1
[1]
  IC50: > 80 µM (inactive)

## COc1ccc(C(=O)OCC[N+]2(C)CCOCC2)cc1
[5]
  IC50: 50 µM (inactive)
[11]
  IC50: 3.47 µM (active)
[12]
  IC50: 1.97 µM (active)

## COc1ccc(NS(=O)(=O)c2ccc(OC)c(OC)c2)cn1
[2]
  IC50: > 100 µM (not active)
[3]
  IC50: > 100 µM (inactive)

## CC(=O)CSc1nc2cc3c(cc2cc1C#N)OCCO3
[8]
  EC50: > 99 µM (inactive)
[9]
  EC50: 29.5 µM (inactive)

## O=C(CSc1nc2cc(Cl)ccc2[nH]1)NC1CCCc2ccccc21 (stereo not given)
[1]
  IC50: > 80 µM (inactive)

## COc1cc(C(=O)Oc2ccccc2/C=N/NC(=O)c2ccc(C)c(Cl)c2)cc(OC)c1OC
[4]
  EC50: > 60 µM (not active)
HEK293
  AC50: 12.9 µM (active)
[6]
  EC50: 1.17 µM (active)
[13]
  CC50: 2.84 µM (active)
INS1
  AC50: 0.829 µM (active)

## Cc1csc(SCC(=O)c2cc(C)n(Cc3cccs3)c2C)n1
HEK293
  AC50: 2.29 µM (active)
[14]
  EC50: 8.09 µM (active)
[15]
  EC50: 8.74 µM (active)
[16]
  EC50: 6.24 µM (active)

## Cc1cc(/C=C2\Cc3ccccc3C2=O)c(C)n1-c1ccccc1
HEK293
  AC50: 1.87 µM (active)
[17]
  EC50: < 0.16 µM (active)

## COc1c(S(=O)(=O)Nc2cccnc2)ccc(Cl)c1Cl
[3]
  IC50: > 100 µM (inactive)

## CC(C)c1ccc(-c2cc(C(=O)O)[nH]n2)cc1
[2]
  IC50: > 100 µM (not active)
[3]
  IC50: > 100 µM (inactive)

## c1nc2nc[nH]c(SSc3[nH]cnc4ncnc3-4)c-2n1
[1]
  IC50: 30.8 µM (inactive)
[18]
  IC50: 75.2 µM (active)

## COC(=O)CCNc1ccc2c(c1)OCCO2
HEK293
  AC50: 1.9 µM (active)
[17]
  EC50: 1.73 µM (active)
[18]
  IC50: 251 µM (active)

## CSc1ccc(S(=O)(=O)NCC(=O)OCCOc2ccccc2)cc1[N+](=O)[O-]
[8]
  EC50: 25.8 µM (inactive)
[9]
  EC50: > 99 µM (inactive)

## Cc1ccc(-c2ccccc2NC(=O)C[S+]([O-])CC(=O)Nc2ccc(C)c(Cl)c2)o1 (stereo not given)
[8]
  EC50: 34.1 µM (inactive)
[9]
  EC50: 41.5 µM (inactive)

## S=C(N/N=C/c1ccc2ncccc2c1)Nc1cccnc1
HEK293
  AC50: 1.59 µM (active)
